Assay [1] deals with T1, GPR40 (Homo sapiens, UniProt O14842). Nature of the assay: Cell-based aequorin assay (CHO cells stably transfected with GPR40 and aequorin). Also noted: expressed in transfected cells. To be noted: activation of human GPR40, CHO cells, 0.01% HSA. As for the experimental part:
Briefly, the Aequorin assays were performed on doubly stable CHO cells expressing GPR40 and Aequorin DNA. […] The luminescence was recorded over a period of 20 seconds with a Microlumat luminometer (Berthold).
Cell-based aequorin assays were employed to characterize the modulatory activity of compounds on the GPR40 signaling pathway. In an exemplary assay, CHO cells were stably transfected with both GPR40 and Aequorin (Euroscreen). Cells were detached from the tissue culture dish with 2 mL of trypsin (0.25% (w/v)). Trypsinization was halted with 28 mL of Hanks Buffered Salt Solution containing 20 mM Hepes (H/HBSS) and 0.01% fatty acid-free human serum albumin (HSA). Coelantrazine is added to 1 ug/mL, and the cells were incubated for 2 hours at room temperature. Compounds were dissolved in DMSO for preparation of 10 mM stock solutions. Compounds were diluted in H/HBSS containing 0.01% HSA. Serial dilutions of the test compounds were prepared to determine dose response.
Aequorin luminescence measurements were made using an EG&G Berthold 96-well luminometer, and the response was measured over a 20 second interval after cells and compounds were mixed. The maximum relative light units was plotted to determine dose response. The EC50 (effective concentration to reach 50% maximal response) was determined from the dose response plot.

For assay [2], the target named is T1, GPR40. The assay can be described thus: Inositol phosphate accumulation assay (A9 cell line stably transfected with GPR40). Format: cell-based. Also noted: expressed in transfected cells. To be noted: human GPR40, A9_GPR40 cells, 1 hour at 37° C.; read-out: IP3 EC50 (inositol phosphate assay data). The protocol: An A9 cell line stably transfected with GPR40 (A9_GPR40) was used in IP accumulation assays. A9_GPR40 cells were plated in 96-well plates containing 20,000 cells/well in DMEM containing 10% FBS. After the cells attached to the well surface, the media was replaced with inositol free DMEM containing 10% dialyzed FBS and 1 μCi, mL ^3H-inositol and incubated for 16 hours. Compounds were diluted in HBSS/10 mM LiCl containing a desired amount of HSA and added directly to cells. Following 1 hour incubation at 37° C., the media was replaced with 100 μl of 20 mM formic acid to quench the reaction. 50 μL of the extract was then added to 100 μL of SPA beads, incubated overnight, and measured on a TopCount the following day.

Where only a bound is given, the exact number is not on record here.

The results in this text go back to patent publication US8450522B2, “Conformationally constrained carboxylic acid derivatives useful for treating metabolic disorders” (Amgen Inc., priority 2008, dated 2013).

T1 sequence (O14842 whole entry): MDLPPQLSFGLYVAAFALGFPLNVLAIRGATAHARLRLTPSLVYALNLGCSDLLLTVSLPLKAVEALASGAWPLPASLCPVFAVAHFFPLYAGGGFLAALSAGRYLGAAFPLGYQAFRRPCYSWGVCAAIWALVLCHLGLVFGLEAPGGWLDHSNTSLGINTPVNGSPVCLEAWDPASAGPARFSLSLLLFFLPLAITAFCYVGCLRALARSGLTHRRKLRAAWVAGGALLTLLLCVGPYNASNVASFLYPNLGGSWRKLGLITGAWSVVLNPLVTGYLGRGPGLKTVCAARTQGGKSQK

A word on the EC50: it is the concentration giving half of the maximal effect. As to `COc1ccc(F)c(-c2ccc(COc3ccc4c(c3)[C@@H](CC(=O)O)CCC4)cc2C(C)(C)C)c1` (single isomer, unassigned) [Example 6, (R)-2-(7-(3-t-Butyl-4-(2-fluoro-5-methoxyphenyl)benzyloxy)1,2,3,4-tetrahydronaphthalen-1-yl)acetic acid or (S)-2-(7-(3-t-butyl-4-(2-fluoro-5-methoxyphenyl)benzyloxy)1,2,3,4-tetrahydronaphthalen-1-yl)acetic acid], the concentration for a half-maximal effect (EC50) at GPR40 [1] and on GPR40 [2] was 100 to 1000 nM in each case.
Turning to `COc1ccc(F)c(-c2ccc(COc3ccc4c(c3)[C@@H](C(C)C(=O)O)CC4)cc2C(C)(C)C)c1` (single isomer, unassigned) [Example 7, (S)-2-(6-(3-t-Butyl-4-(2-fluoro-5-methoxyphenyl)benzyloxy)-2,3-dihydro-1H-inden-1-yl)propanoic acid or (R)-2-(6-(3-t-butyl-4-(2-fluoro-5-methoxyphenyl)benzyloxy)-2,3-dihydro-1H-inden-1-yl)propanoic acid], the EC50 on GPR40 [1] and at GPR40 [2] was 100 to 1000 nM each time.
For `CCCCOc1cc(COc2ccc3c(c2)[C@@H](CC(=O)O)CC3)ccc1-c1cc(OC)ccc1F` (single isomer, unassigned) [Example 17, ((1R)-6-(((2-(butyloxy)-2′-fluoro-5′-(methyloxy)-1,1′-biphenyl-4-yl)methyl)oxy)-2,3-dihydro-1H-inden-1-yl)acetic acid or ((1S)-6-(((2-(butyloxy)-2′-fluoro-5′-(methyloxy)-1,1′-biphenyl-4-yl)methyl)oxy)-2,3-dihydro-1H-inden-1-yl)acetic acid], the EC50 at GPR40 [1] fell in the range of 100 to 1000 nM; on GPR40 [2] it was 1000 to 10000 nM.
In the same order, the values of `COc1ccc(F)c(-c2ccc(COc3ccc4c(c3)[C@](C)(CC(=O)O)CC4)cc2[C@H]2CCCC2(C)C)c1` (single isomer, unassigned) [Example 18, {(S)-6-[2-((S)-2,2-Dimethyl-cyclopentyl)-2′-fluoro-5′-methoxy-biphenyl-4-ylmethoxy]-1-methyl-indan-1-yl}-acetic acid or diastereomer thereof] are 100 to 1000 nM and 10 to 100 nM.
The matching figures for `COc1ccc(F)c(-c2ccc(COc3ccc4c(c3)[C@@](C)(CC(=O)O)CC4)cc2[C@@H]2CCCC2(C)C)c1` (single isomer, unassigned) [Example 19, {(R)-6-[2-((S)-2,2-Dimethyl-cyclopentyl)-2′-fluoro-5′-methoxy-biphenyl-4-ylmethoxy]-1-methyl-indan-1-yl}-acetic acid or diastereomer thereof]: 100 to 1000 nM and under 10 nM.
The matching figures for `COc1cc(-c2ccc(COc3ccc4c(c3)[C@@](C)(CC(=O)O)CC4)cc2[C@@H]2CCCC2(C)C)c(F)cn1` (single isomer, unassigned) [Example 20, {(R)-6-[3-((S)-2,2-Dimethyl-cyclopentyl)-4-(5-fluoro-2-methoxy-pyridin-4-yl)-benzyloxy]-1-methyl-indan-1-yl}-acetic acid or diastereomer thereof]: 100 to 1000 nM and under 10 nM.
As for `COc1ccc(F)c(-c2ccc(COc3ccc4c(c3)[C@@H](C(C)(C)C(=O)O)CC4)cc2[C@H]2CCCC2(C)C)c1` (single isomer, unassigned) [Example 21], the half-maximal effective concentration (EC50) at GPR40 [1] was 100 to 1000 nM; at GPR40 [2], 10 to 100 nM.
The matching figures for `COc1ccc(F)c(-c2ccc(COc3ccc4c(c3)[C@@H](CC(=O)O)CC4)cc2[C@H]2CCCC2(C)C)c1` (single isomer, unassigned) [Example 22]: 100 to 1000 nM and 10 to 100 nM.
With `COc1cc(-c2ccc(COc3ccc4c(c3)[C@@H](CC(=O)O)CC4)cc2[C@H]2CCCC2(C)C)c(F)cn1` (single isomer, unassigned) [Example 23], the EC50 at GPR40 [1] was in the range of 100 to 1000 nM; at GPR40 [2] it was 10 to 100 nM.
In the same order, the values of `COc1ccc(F)c(-c2ccc(COc3ccc4c(c3)[C@@H](CC(=O)O)CC4)cc2[C@@H](OC)C(C)(C)C)c1` (single isomer, unassigned) [Example 24] are 100 to 1000 nM and 10 to 100 nM.
In the same order, the values of `COc1ccc(F)c(-c2cc(F)c(COc3ccc4c(c3)[C@@](C)(CC(=O)O)CC4)cc2[C@H]2CCCC2(C)C)c1` (single isomer, unassigned) [Example 33, ((1R)-6-((2-((1S)-2,2-Dimethylcyclopentyl)-2′,5-difluoro-5′-methoxy-4-biphenylyl)methoxy)-1-methyl-2,3-dihydro-1H-inden-1-yl)acetic acid or ((1R)-6-((2-((1R)-2,2-dimethylcyclopentyl)-2′,5-difluoro-5′-methoxy-4-biphenylyl)methoxy)-1-methyl-2,3-dihydro-1H-inden-1-yl)acetic acid] are 10 to 100 nM and under 10 nM.
The matching figures for `COc1cc(-c2cc(F)c(COc3ccc4c(c3)[C@@](C)(CC(=O)O)CC4)cc2[C@H]2CCCC2(C)C)c(F)cn1` (single isomer, unassigned) [Example 34, ((1R)-6-((5-((1S)-2,2-Dimethylcyclopentyl)-2-fluoro-4-(5-fluoro-2-methoxy-4-pyridinyl)benzyl)oxy)-1-methyl-2,3-dihydro-1H-inden-1-yl)acetic acid or ((1R)-6-((5-((1R)-2,2-dimethylcyclopentyl)-2-fluoro-4-(5-fluoro-2-methoxy-4-pyridinyl)benzyl)oxy)-1-methyl-2,3-dihydro-1H-inden-1-yl)acetic acid]: 100 to 1000 nM and under 10 nM.
For `COc1ccc(F)c(-c2c(F)cc(COc3ccc4c(c3)[C@@](C)(CC(=O)O)CC4)cc2[C@H]2CCCC2(C)C)c1` (single isomer, unassigned) [Example 35, ((1R)-6-((2-((1S)-2,2-Dimethylcyclopentyl)-2′,6-difluoro-5′-methoxy-4-biphenylyl)methoxy)-1-methyl-2,3-dihydro-1H-inden-1-yl)acetic acid or ((1R)-6-((2-((1R)-2,2-dimethylcyclopentyl)-2′,6-difluoro-5′-methoxy-4-biphenylyl)methoxy)-1-methyl-2,3-dihydro-1H-inden-1-yl)acetic acid], the EC50 was 100 to 1000 nM on GPR40 [1] and under 10 nM at GPR40 [2].
The matching figures for `COc1ccc(F)c(-c2ccc(COc3ccc4c(c3)[C@@](C)(CC(=O)O)CC4)cc2[C@@H](OC)C(C)(C)C)c1` (single isomer, unassigned) [Example 36, ((1R)-6-((2′-Fluoro-5′-methoxy-2-((1S)-1-methoxy-2,2-dimethylpropyl)-4-biphenylyl)methoxy)-1-methyl-2,3-dihydro-1H-inden-1-yl)acetic acid or ((1R)-6-((2′-fluoro-5′-methoxy-2-((1R)-1-methoxy-2,2-dimethylpropyl)-4-biphenylyl)methoxy)-1-methyl-2,3-dihydro-1H-inden-1-yl)acetic acid]: 100 to 1000 nM and under 10 nM.
In the same order, the values of `COc1cc(-c2ccc(COc3ccc4c(c3)[C@@](C)(CC(=O)O)CC4)cc2[C@@H](OC)C(C)(C)C)c(F)cn1` (single isomer, unassigned) [Example 37, 2-((1R)-6-(4-(5-Fluoro-2-methoxypyridin-4-yl)-3-((S)-1-methoxy-2,2-dimethylpropyl)benzyloxy)-1-methyl-2,3-dihydro-1H-inden-1-yl)acetic acid or 2-((1R)-6-(4-(5-fluoro-2-methoxypyridin-4-yl)-3-(R)-1-methoxy-2,2-dimethylpropyl)benzyloxy)-1-methyl-2,3-dihydro-1H-inden-1-yl)acetic acid] are 100 to 1000 nM and under 10 nM.
The matching figures for `COc1cc(-c2ccc(COc3ccc4c(c3F)[C@@](C)(CC(=O)O)CC4)cc2[C@H]2CCCC2(C)C)c(F)cn1` (single isomer, unassigned) [Example 38, {(R)-6-[3-((S)-2,2-Dimethyl-cyclopentyl)-4-(5-fluoro-2-methoxy-pyridin-4-yl)-benzyloxy]-7-fluoro-1-methyl-indan-1-yl}-acetic acid or stereoisomer thereof]: 100 to 1000 nM and 10 to 100 nM.
Take `COc1cc(-c2ccc(COc3ccc4c(c3)[C@](C)(CC(=O)O)CCC4)cc2[C@H]2CCCC2(C)C)c(F)cn1` (single isomer, unassigned) [Example 49]: on GPR40 [1], the EC50 lay within 100 to 1000 nM.
In the case of `COc1ccc(F)c(-c2ccc(COc3ccc4c(c3)[C@H]([C@@H](C)C(=O)O)CC4)cc2C(C)(C)C)c1` [Example 13], the EC50 at GPR40 [1] lay in the range of 100 to 1000 nM.
The same measure, in the same setting: for `COc1cc(-c2ccc(COc3ccc4c(c3F)C(C)(CC(=O)O)CC4)cc2C(OC)C(C)(C)C)c(F)cn1` [Example 41, {(S)-7-Fluoro-6-[4-(5-fluoro-2-methoxy-pyridin-4-yl)-3-((S)-1-methoxy-2,2-dimethyl-propyl)-benzyloxy]-1-methyl-indan-1-yl}-acetic acid or stereoisomer thereof] the value was 1000 to 10000 nM.
